Values after ≈ are worked out from the molar mass of the structure shown. Active and inactive are the calls of the source. The rule behind the calls is not given here.
Columns and labels:
[1] = Solubility of the compound in 0.05 to 0.1% DMSO; assay type: physicochemical
[2] = test system: Staphylococcus aureus; assay: Antibacterial activity against Staphylococcus aureus MTCC 96 after 18 to 24 hrs by agar well diffusion method; assay type: functional
[3] = test system: Staphylococcus aureus; assay: Antibacterial activity against Staphylococcus aureus MTCC 96 after 18 to 24 hrs by broth microdilution method; assay type: functional
[4] = test system: Escherichia coli; assay: Antibacterial activity against Escherichia coli MTCC 1652 after 18 to 24 hrs by agar well diffusion method; assay type: functional
[5] = test system: Escherichia coli; assay: Bactericidal activity against Escherichia coli MTCC 1652 assessed as reduction of number of bacterial cells at 4 times MIC after 1 to 6 hrs; assay type: functional, organism-based
[6] = test system: Escherichia coli; assay: Antibacterial activity against Escherichia coli MTCC 1652 after 18 to 24 hrs by broth microdilution method; assay type: functional
[7] = test system: Escherichia coli; assay: Bactericidal activity against Escherichia coli MTCC 1652 assessed as reduction of number of bacterial cells at 4 times MIC after 2 to 3 hrs; assay type: functional, organism-based
[8] = test system: Pseudomonas putida; assay: Bactericidal activity against Pseudomonas putida MTCC 102 assessed as reduction of number of bacterial cells at 4 times MIC after 2 to 3 hrs; assay type: functional, organism-based
[9] = test system: Pseudomonas putida; assay: Bactericidal activity against Pseudomonas putida MTCC 102 assessed as reduction of number of bacterial cells at 4 times MIC after 1 to 6 hrs; assay type: functional, organism-based
[10] = test system: Pseudomonas putida; assay: Antibacterial activity against Pseudomonas putida MTCC 102 after 18 to 24 hrs by agar well diffusion method; assay type: functional
[11] = test system: Bacillus subtilis; assay: Antibacterial activity against Bacillus subtilis MTCC 121 after 18 to 24 hrs by agar well diffusion method; assay type: functional
[12] = test system: Bacillus subtilis; assay: Antibacterial activity against Bacillus subtilis MTCC 121 after 18 to 24 hrs by broth microdilution method; assay type: functional
[13] = test system: Pseudomonas putida; assay: Antibacterial activity against Pseudomonas putida MTCC 102 after 18 to 24 hrs by broth microdilution method; assay type: functional
[14] = test system: HEK-293T; assay: Cytotoxicity against human HEK293T cells after 48 hrs by MTT assay in presence of 10% FBS; assay type: cell-based
[15] = test system: LNCaP; assay: Cytotoxicity against human LNCAP cells after 48 hrs by MTT assay in presence of 10% FBS; assay type: functional, cell-based
[16] = test system: PC-3; assay: Cytotoxicity against human PC3 cells after 48 hrs by MTT assay in presence of 10% FBS; assay type: functional, cell-based; conditions: PC-3, 48 h
[17] = Cytotoxicity against human castration-resistant C4-2 cells after 48 hrs by MTT assay in absence of 10% FBS; assay type: functional, cell-based; conditions: LNCaP C4-2, 48 h
[18] = test system: MDA-MB-231; assay: Cytotoxicity against human MDA-MB-231 cells after 48 hrs by MTT assay in absence of 10% FBS; assay type: functional, cell-based; conditions: MDA-MB-231, 48 h
[19] = test system: HeLa; assay: Induction of apoptosis in human HeLa cells assessed as formation of apoptotic nuclei formation at 10 uM after 24 hrs using propidium iodide staining by fluorescence microscopy analysis; assay type: functional, cell-based
[20] = Cytotoxicity against human castration-resistant C4-2 cells after 48 hrs by MTT assay in presence of 10% FBS; assay type: functional, cell-based; conditions: LNCaP C4-2, 48 h
[21] = test system: LNCaP; assay: Cytotoxicity against human LNCAP cells after 48 hrs by MTT assay in absence of 10% FBS; assay type: functional, cell-based
[22] = test system: HEK-293T; assay: Cytotoxicity against human HEK293T cells after 48 hrs by MTT assay in absence of 10% FBS; assay type: cell-based
[23] = test system: PC-3; assay: Cytotoxicity against human PC3 cells after 48 hrs by MTT assay in absence of 10% FBS; assay type: functional, cell-based; conditions: PC-3, 48 h
[24] = test system: HeLa; assay: Cytotoxicity against human HeLa cells after 48 hrs by MTT assay in absence of 10% FBS; assay type: functional, cell-based
[25] = test system: HeLa; assay: Cytotoxicity against human HeLa cells after 48 hrs by MTT assay in presence of 10% FBS; assay type: functional, cell-based
[26] = test system: MDA-MB-231; assay: Cytotoxicity against human MDA-MB-231 cells after 48 hrs by MTT assay in presence of 10% FBS; assay type: functional, cell-based; conditions: MDA-MB-231, 48 h

Compound	inhibition zone (IZ) [2] [mm]	MIC [3] [µg/mL]	inhibition zone (IZ) [4] [mm]	MIC [6] [µg/mL]	inhibition zone (IZ) [10] [mm]	inhibition zone (IZ) [11] [mm]	MIC [12] [µg/mL]	MIC [13] [µg/mL]	IC50 [14] [µM]	IC50 [15] [µM]	IC50 [16] [µM]	IC50 [17] [µM]	IC50 [18] [µM]	IC50 [20] [µM]	IC50 [21] [µM]	IC50 [22] [µM]	IC50 [23] [µM]	IC50 [24] [µM]	IC50 [25] [µM]	IC50 [26] [µM]	other results
COc1ccc(NC(=O)c2csc(-c3c[nH]c4ccc(Br)cc34)n2)cc1	14	50 (≈ 117 µM)	15	12.5 (≈ 29.2 µM)	16	15	50 (≈ 117 µM)	12.5 (≈ 29.2 µM)													solubility [1]: Insoluble; Activity [5]: Active; Activity [7]: Active; Activity [8]: Active; Activity [9]: Active
COc1cccc2c1C(=O)c1c(O)c3c(c(O)c1C2=O)C[C@@](O)(C(=O)CO)C[C@@H]3O[C@H]1C[C@H](N)[C@H](O)[C@H](C)O1 [DOXORUBICIN]									0.75	7.4	9.8	1.02	6.03	0.57	6.46	0.84	7.65				Activity [19]: Active
COc1cc(NC(=O)c2csc(-c3c[nH]c4ccc(F)cc34)n2)cc(OC)c1OC	12	100 (≈ 234 µM)	14	50 (≈ 117 µM)	14	10	100 (≈ 234 µM)	50 (≈ 117 µM)	66	88.5	> 100	> 100	> 100	> 100	> 100	> 100	89	> 100	48.9	> 100	
O=C(Nc1ccccc1)c1csc(-c2cn(Cc3ccc(Cl)cc3)c3ccccc23)n1	12	100 (≈ 225 µM)	15	50 (≈ 113 µM)	15	13	100 (≈ 225 µM)	50 (≈ 113 µM)	> 100	68.9	> 100	> 100	50.5	> 100	64.1	> 100	76.4	24.3	32.1	> 100	
COc1cc(NC(=O)c2csc(-c3c[nH]c4ccc(Br)cc34)n2)cc(OC)c1OC	15	50 (≈ 102 µM)	14	50 (≈ 102 µM)	16	16	12.5 (≈ 25.6 µM)	12.5 (≈ 25.6 µM)	32.8	> 100	> 100	> 100	> 100	> 100	> 100	> 100	> 100	55.8	93	> 100	
COc1ccc(NC(=O)c2csc(-c3c[nH]c4ccccc34)n2)cc1	11	100 (≈ 286 µM)	14	50 (≈ 143 µM)	12	12	100 (≈ 286 µM)	100 (≈ 286 µM)													solubility [1]: Insoluble
COc1ccc(NC(=O)c2csc(-c3c[nH]c4ccccc34)n2)cc1OC	14	50 (≈ 132 µM)	16	25 (≈ 65.9 µM)	16	14	50 (≈ 132 µM)	25 (≈ 65.9 µM)													solubility [1]: Insoluble
COc1ccc(NC(=O)c2csc(-c3c[nH]c4ccc(F)cc34)n2)cc1	12	100 (≈ 272 µM)	14	50 (≈ 136 µM)	13	13	100 (≈ 272 µM)	100 (≈ 272 µM)	> 100	75.4	> 100	> 100	49.4	> 100	66.4	12.1	> 100	3.41	33.5	> 100	
O=C(NCc1ccccc1)c1csc(-c2c[nH]c3ccccc23)n1			13	100 (≈ 300 µM)	13			100 (≈ 300 µM)	74.5	> 100	> 100	> 100	> 100	> 100	> 100	> 100	> 100	9.51	41.4	> 100	

From ChEMBL document CHEMBL3616377, “2-(3'-Indolyl)-N-arylthiazole-4-carboxamides: Synthesis and evaluation of antibacterial and anticancer activities” (Bioorg Med Chem Lett, 2015)
